Series [1] can be described thus: Fluorogenic behavior in phosphatidylcholine liposome suspensions. It counts as physicochemical. The following applies: PBS vs phosphatidylcholine liposome suspensions; λexc 450 nm, λem 510 nm. On the procedure:
Figure 1 a) Chemical structure of the Fmoc‐protected Trp‐BODIPY PLUS amino acid for general peptide synthesis. b) Fluorescence emission spectra of Trp‐BODIPY PLUS (25 μM) in phosphate buffer saline (PBS) suspensions with increasing content of phosphatidylcholine liposomes. λ exc: 450 nm. Inset) UV‐irradiated pictograms of Trp‐BODIPY PLUS in hydrophilic (bottom) and hydrophobic (top) environments. c) Peptide sequences synthesized with Trp‐BODIPY and Trp‐BODIPY PLUS, their biological targets, solid supports, protected amino acids and purities after SPPS. RA: Rink Amide, TG: TentaGel, CTC: chlorotrityl, PS: polystyrene,^[a] not determined due to degradation of BODIPY. d) Synthetic scheme and structures of KP‐10 analogues with Trp‐BODIPY PLUS instead of the native Trp (peptide 7) or at the N‐terminal end (peptide 8).
(§1) BODIPY PLUS (10 µM) in phosph ate buffer salin e (PBS, white bars) an d phosp hat idy lcho lin e li posom e susp ensi ons (gr ey bars). λ exc: 45 0 nm; λem: 51 0 nm.
(§2) V alues pr es ent e d as m ea ns ±S E M ( n= 3) .
(§3) Tr p-BODIPY P LU S (-20 °C, solid)
(§4) Tr p-BODIPY P LU S (-20 °C, DMSO)
(§5) S u p p l emen t ary F i gu re 6 . HP LC tr ac es of T r p-B O DI P Y P LUS aft er 5 m ont hs st or age in t he f r eez er as po wder ( t op) and as 5 mM DMSO s olut i ons ( bot t om ). […]
Sp ectro sco p y mea su rem en ts. […]

A short description of series [2]: Solubility: linear regression of HPLC peak area in DMSO and PBS. The format is physicochemical. The note with it: DMSO and PBS (≤1% DMSO), HPLC-MS with UV detection at 510 nm. As for the experimental part: (§6) S u p p l emen t ary Figure 7. Nor m alized f luoresc ence em is s ion of Trp-BODIPY PLUS ( 50 µ M , buf f er ) at 37° C und er c o nt inu ous l ight ir r adi at ion ( Xe l am p, 20 W ) . λexc: 450 nm; λem: 510 nm . V alues pr es ent e d as m eans ±S D ( n= 6).
(§7) Supplementary Figure 8 . Linear r egr es s ions of t he p eak a bs or b anc e ar ea ( m A U) of T rp-BO DI PY PLUS in DMSO (re d) an d PBS (c ont a ini ng ≤ 1% DM S O , bl ue) at d if f er ent c onc ent r at i ons of t he ami no ac id. Valu es wer e det ermi ned by HPLC-MS us ing UV det ec t ion at 51 0 nm . R2 v alues : 0. 99 9 ( r ed) , 0. 99 4 ( blu e) .
(§8) (also on this page, place not known: time (min) Normalized photostability Normalized fluorescence emission (50 µM, buffer) 37°C under continuous light irradiation (Xe lamp, W) nm; nm. Values presented means±SD (n=6). µM) Peak area (mAU) DMSO) Supplementary 8. regressions the peak absorbance area (mAU) Trp-BODIPY DMSO (red) and (containing ≤1% DMSO, blue) different concentrations the amino acid. Values were determined using detection 510 nm. values: 0.999 (red), 0.994 (blue).)

The nature of series [3]: Photostability under continuous light irradiation. The following applies: 50 µM, buffer, 37°C, continuous irradiation (Xe lamp, 20 W), λexc 450 nm, λem 510 nm, n=6. It counts as physicochemical. On the procedure: as §6, §7, §8
The nature of series [4]: Storage stability (HPLC). The note with it: 5 months in freezer (-20 °C), powder and 5 mM DMSO solution. The format is physicochemical. On the procedure:
as §1, §2, §3, §4, §5

Series [5] can be described thus: Stability analysis of Trp-BODIPY FlAAs under SPPS conditions.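 For all read-outs here: chemical integrity of the BODIPY-labelled tryptophan amino acids checked after exposure to reagents used in solid-phase peptide synthesis.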 The note with it: for Stability (purity by HPLC-MS): 70 μM; for Stability (purity by HPLC-MS) / Chemical stability (HPLC-MS): r.t.; for Chemical stability (HPLC-MS): 70 µM.
Protocol: Next, we studied the stability of Trp‐BODIPY PLUS in TFA and compared it to that of Trp‐BODIPY (Table 2).
Analysis of t he chemical st abilit y of T rp-BO DI PY and T rp-
BODIPY PLUS under conve nt ion al SPPS condit i ons. Amino aci ds were di lut ed w it h
dif f erent rea gent mixt ur es (70 µ M , f inal v olum e 10 0 uL) a nd st irre d at r. t . f or 1 h
( c ondit i ons A-B and E-H) or 5 m i n ( c o ndit i ons C an d D).
Fmoc-T rp -BO DI PY(X)2-OH
En t ry Conditions X = F X = CN

As to `CC1=CC(C)=[N+]2C1=C(c1cccc(-c3[nH]c4ccccc4c3C[C@H](NC(=O)OCC3c4ccccc4-c4ccccc43)C(=O)O)c1)c1c(C)cc(C)n1[B-]2(C#N)C#N` [Trp-BODIPY PLUS], the “Fluorogenic behavior (in words)” value in series [1] is “strong fluorogenic behavior”. Besides, the “Solubility (in words)” value in series [2] is listed as “suitable solubility”. Moreover, the “Photostability (in words)” value in series [3] is “suitable solubility and photo‐ and chemical stability for long‐term storage”. Moreover, in series [4], the “Chemical stability on storage (in words)” value was “chemical stability for long‐term storage”. The “Stability (purity by HPLC-MS)” value in series [5] (2% N2H4 in DMF, 60 min) is more than 95%; in series [5] (95% TFA, 2.5% DTT, 60 min, DCM) it was more than 95%; in series [5] (95% TFA, 2.5% H2O, 60 min, DCM), more than 95%; in series [5] (95% TFA, 2.5% TIS, 60 min, DCM) it was more than 95%; in series [5] (95% TFA, 5 min, DCM), more than 95%; in series [5] (95% TFA, 60 min, DCM) it was more than 95%. Moreover, the “Stability (purity by HPLC-MS)” value is reported as 6% in series [5] (I2 (5 eq) in MeOH, 60 min); more than 95% in series [5] (Pd(PPh3)4 (0.1 eq), PhSiH3 (10 eq), 60 min, DCM); more than 95% in series [5] (TBAF (3 eq), 60 min, DCM). Moreover, the “Stability in TFA (in words)” value in series [5] (95% TFA, 1 h) is “fully resistant to TFA even after 1 h”. For the same compound, the “Chemical stability (HPLC-MS)” value in series [5] (Supplementary Table 2 entry A: 1% TFA, 2.5% DTT, 1 h) is more than 95%; in series [5] (Supplementary Table 2 entry B: 5% TFA, 2.5% DTT, 1 h), more than 95%; in series [5] (Supplementary Table 2 entry C: 95% TFA, 2.5% DTT, 5 min), more than 95%; in series [5] (Supplementary Table 2 entry D: 20% piperidine: DMF, 5 min) it was more than 93%; in series [5] (Supplementary Table 2 entry E: 5% NaHCO3 (aq), 1 h), more than 95%; in series [5] (Supplementary Table 2 entry F: 5% Na2CO3 (aq), 1 h) it was more than 95%. For the same compound, the “Chemical stability (HPLC-MS)” value in series [5] (Supplementary Table 2 entry G: 1% DIPEA: DMF, 1 h) is more than 95%; in series [5] (Supplementary Table 2 entry H: 0.1 M HOBt: TFE, 1 h), more than 95%. For the same compound, the “Stability to iodine (in words)” value in series [5] (presence of iodine) is recorded as “degraded in the presence of iodine”.

Values taken from PMC10947197, “Acid‐Resistant BODIPY Amino Acids for Peptide‐Based Fluorescence Imaging of GPR54 Receptors in Pancreatic Islets” (Angewandte Chemie (International Ed. in English), 2023).
